This experiment has as its target T1, PsPto‐PscC‐LBD (Pseudomonas syringae group genomosp. 3, UniProt Q883C0).
T1 construct: gene PSPTO_2448; pET28b(+) derivative p2448-LBD, HisTrap purified, E. coli BL21(AI)
Description: isothermal titration calorimetry. In kind it is binding. (In general: ITC needs no label: the signal is the heat of the interaction.)

Each structure is given as a SMILES string. Where two headings read alike, the source gives them in different places.

T1 sequence (Q883C0 entry or part of it): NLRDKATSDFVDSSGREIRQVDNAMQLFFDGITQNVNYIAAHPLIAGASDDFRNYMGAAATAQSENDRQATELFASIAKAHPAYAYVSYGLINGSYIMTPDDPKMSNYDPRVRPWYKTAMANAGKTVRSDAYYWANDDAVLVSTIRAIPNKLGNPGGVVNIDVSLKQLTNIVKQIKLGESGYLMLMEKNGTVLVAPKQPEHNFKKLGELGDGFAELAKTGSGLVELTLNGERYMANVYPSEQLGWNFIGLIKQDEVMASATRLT

As to `NCCCC(=O)O` [GABA], the Kd (read-out: K D) is 1.87 ± 0.3 µM.
`O=C(O)[C@@H]1CCCN1` [L‐Pro] registered a Kd of 4.52 ± 0.4 µM.

The values above are taken from publication PMC9452764, “Pseudomonas syringae pv. tomato infection of tomato plants is mediated by GABA and L‐Pro chemoperception” (Molecular Plant Pathology, 2022).
